Data published in article PMC6272448, “Synthesis, ^18F-Radiolabelling and Biological Characterization of Novel Fluoroalkylated Triazine Derivatives for in Vivo Imaging of Phosphodiesterase 2A in Brain via Positron Emission Tomography” (Molecules, 2015).

Columns and labels:
[1] = in vivo metabolism in mice, conventional extraction and RP-HPLC; settings: CD-1 mice, 30 min p.i., 150 MBq, extraction + RP-HPLC
Method: In vivo metabolism of [^18F]TA3 and [^18F]TA4 was investigated in plasma and brain samples obtained from CD-1 mice at 30 min post injection of 150 MBq of each radioligand. Analysis of the samples was performed after protein precipitation and twofold extraction using an organic solvent. […] In brain samples, 50% of total activity were represented by intact [^18F]TA3 (Figure 7; recovery: 65%).
The radioligands [^18F]TA3 or [^18F]TA4 (~60 MBq in 150 µL isotonic saline) were injected via the tail vein in female CD-1 mice (10–12 weeks old). Brain and blood samples were obtained at 30 min p.i., plasma separated by centrifugation (14,000× g, 1 min), and brain homogenized in ~1 mL isotonic saline on ice (10 strokes of a PTFE plunge at 1000 rpm in a borosilicate glass cylinder; Potter S Homogenizer, B. Braun Melsungen AG, Melsungen, Germany).
Twofold extractions of plasma (2 × 50 µL, 30 min p.i.) and brain samples (2 × 250 µL, 30 min p.i.) were performed using a mixture of ice-cold acetone/water (8:2, v/v; plasma or brain sample/organic solvent, 1:4, v/v). The samples were vortexed for 1 min, incubated on ice for 10 min (first extraction) or 5 min (second extraction) and centrifuged at 10,000 rpm for 5 min. Supernatants were collected and the precipitates were re-dissolved in ice-cold acetone/water for the second extraction. Aliquots from supernatants of each extraction step were taken. Activity thereof and of the precipitates was quantified using an automated gamma counter (1480 WIZARD, Fa. Perkin Elmer). The supernatants from both extractions were combined, concentrated under nitrogen stream at 70 °C and analyzed by radio-HPLC (system B).

[2] = lipophilicity (logD7.4), shake-flask method; type: physicochemical; settings: n-octanol/PBS (1:1, v/v), n-octanol / PBS pH 7.4, ambient temperature, fourfold determination
Method: (§1) To estimate the lipophilicity of [^18F]TA3 and [^18F]TA4, the distribution coefficients were determined by partitioning between n-octanol and phosphate buffered saline (PBS, pH 7.4) at ambient temperature using the conventional shake-flask method. […] In vitro stability of each radioligand was investigated in phosphate buffered saline (PBS, pH 7.4), n-octanol and pig plasma after 60 min incubation at 37 °C.
The lipophilicity of [^18F]TA3 or [^18F]TA4 was determined by partitioning between n-octanol and phosphate buffered saline (PBS, pH 7.4) at ambient temperature using the conventional shake-flask method. An aliquot of 10 µL of the formulated solutions of each [^18F]TA3 or [^18F]TA4 with approximately 1 MBq of the radioligand was added to a tube containing 6 mL of the n-octanol/PBS-mixture (1:1, v/v, fourfold determination). The tubes were shaken for 20 min using a mechanical shaker (HS250 basic, IKA Labortechnik GmbH & Co. KG, Staufen, Germany) followed by centrifugation (5000 rpm for 5 min) and separation of the phases. Aliquots of each 1 mL were taken from the organic and the aqueous phase and activity was measured using an automated gamma counter (1480 WIZARD, Fa. Perkin Elmer, Waltham, MA, USA). The distribution coefficient (D) was calculated as [activity (cpm/mL) in n-octanol]/[activity (cpm/mL) in PBS, pH 7.4] specified as the decade logarithm (logD7.4).

[3] = in vitro stability in PBS, n-octanol and pig plasma; type: in vitro ADME; settings: PBS pH 7.4, n-octanol and pig plasma, 60 min at 37 °C; radio-TLC and radio-HPLC
Method: as §1
In vitro stabilities of [^18F]TA3 or [^18F]TA4 were investigated by incubation of the radioligands in phosphate buffered saline (PBS, pH 7.4), n-octanol and pig plasma at 37 °C for 60 min (~5 MBq of the radioligand added to 500 µL of each medium). Samples were taken at 15, 30 and 60 min after incubation and analyzed by radio-TLC and radio-HPLC (system B).

Compound | intact radioligand in brain [1] | non-metabolized (intact) radioligand in plasma [1] | logD [2] | in vitro stability [3]
COc1ccc2nnc3c(C)nc(-c4cc(OCCC[18F])ccc4F)n3c2n1 [[^18F]TA3] | 50 % of total activity | 8 % of total activity | 3.37 ± 0.14 | stable in all media tested in vitro
COc1ccc2nnc3c(C)nc(-c4cc(OCCCC[18F])ccc4F)n3c2n1 [[^18F]TA4] | No intact [^18F]TA4 was detectable | 6 % of total activity | 2.99 ± 0.15 | stable in all media tested in vitro
